Measurements reported in ChEMBL document CHEMBL1142994, “Structure-based design, synthesis, and biological evaluation of potent and selective macrocyclic checkpoint kinase 1 inhibitors” (J Med Chem, 2007).

How the values were obtained:
[1] = target: T1, Serine/threonine-protein kinase Chk1 (Homo sapiens, UniProt O14757); experiment: Inhibition of recombinant Chk1
T1 sequence (O14757 whole entry): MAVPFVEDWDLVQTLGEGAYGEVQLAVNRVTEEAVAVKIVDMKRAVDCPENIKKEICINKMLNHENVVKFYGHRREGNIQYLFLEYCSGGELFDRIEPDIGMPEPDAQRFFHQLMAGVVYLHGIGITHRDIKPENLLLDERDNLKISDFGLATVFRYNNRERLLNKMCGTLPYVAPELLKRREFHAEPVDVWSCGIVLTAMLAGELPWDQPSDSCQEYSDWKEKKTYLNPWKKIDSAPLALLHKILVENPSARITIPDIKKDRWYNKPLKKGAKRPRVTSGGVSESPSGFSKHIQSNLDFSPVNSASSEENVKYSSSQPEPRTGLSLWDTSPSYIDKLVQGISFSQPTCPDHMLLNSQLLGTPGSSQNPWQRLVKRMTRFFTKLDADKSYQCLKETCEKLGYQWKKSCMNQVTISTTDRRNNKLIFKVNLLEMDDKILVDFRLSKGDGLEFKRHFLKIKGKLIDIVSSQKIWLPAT

HeLa [2] = experiment: Cytotoxicity against HeLa cells in presence of doxorubicin by MTS assay; type: functional, cell-based, Homo sapiens
NCI-H1299 [3] = experiment: Inhibition of accumulation of H1299 cells in G2/M phase in presence of doxorubicin by FACS assay; type: functional, cell-based, Homo sapiens
HeLa [4] = experiment: Cytotoxicity against HeLa cells by MTS assay; type: functional, cell-based, Homo sapiens
NCI-H1299 [5] = experiment: Accumulation of H1299 cells in G2/M phase measured as cell cycle arrest by FACS assay; type: functional, cell-based, Homo sapiens
[6] = target: T2, Calcium/calmodulin-dependent protein kinase type IV (Homo sapiens, UniProt Q16566); experiment: Inhibition of Camk4
T2 sequence (Q16566 whole entry): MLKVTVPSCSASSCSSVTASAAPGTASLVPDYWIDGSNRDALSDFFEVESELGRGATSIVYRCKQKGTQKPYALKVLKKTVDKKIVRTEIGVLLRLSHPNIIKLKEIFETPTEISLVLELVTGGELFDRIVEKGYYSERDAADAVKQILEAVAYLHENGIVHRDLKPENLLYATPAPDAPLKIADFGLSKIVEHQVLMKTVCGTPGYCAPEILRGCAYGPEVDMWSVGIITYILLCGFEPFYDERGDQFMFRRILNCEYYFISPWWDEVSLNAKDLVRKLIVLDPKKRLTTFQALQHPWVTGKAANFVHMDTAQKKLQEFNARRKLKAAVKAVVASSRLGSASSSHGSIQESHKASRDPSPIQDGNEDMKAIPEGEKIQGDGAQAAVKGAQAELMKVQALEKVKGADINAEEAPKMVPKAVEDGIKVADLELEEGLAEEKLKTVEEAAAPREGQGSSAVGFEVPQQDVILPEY

[7] = target: T3, Serine/threonine-protein kinase Sgk1 (Homo sapiens, UniProt O00141); experiment: Inhibition of SGK
T3 sequence (O00141 whole entry): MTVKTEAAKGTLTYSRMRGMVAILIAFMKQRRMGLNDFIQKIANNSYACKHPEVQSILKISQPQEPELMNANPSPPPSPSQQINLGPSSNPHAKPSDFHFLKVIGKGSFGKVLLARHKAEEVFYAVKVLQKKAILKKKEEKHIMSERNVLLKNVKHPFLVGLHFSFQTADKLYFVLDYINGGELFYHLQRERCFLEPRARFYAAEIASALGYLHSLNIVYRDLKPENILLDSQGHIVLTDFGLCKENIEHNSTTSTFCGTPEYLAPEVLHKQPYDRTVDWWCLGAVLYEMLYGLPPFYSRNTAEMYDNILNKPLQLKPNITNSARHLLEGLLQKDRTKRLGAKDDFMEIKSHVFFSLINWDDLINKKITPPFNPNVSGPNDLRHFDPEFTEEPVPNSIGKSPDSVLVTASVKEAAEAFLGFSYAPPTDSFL

[8] = target: T4, Mitogen-activated protein kinase 13 (Homo sapiens, UniProt O15264); experiment: Inhibition of p38 delta
T4 sequence (O15264 whole entry): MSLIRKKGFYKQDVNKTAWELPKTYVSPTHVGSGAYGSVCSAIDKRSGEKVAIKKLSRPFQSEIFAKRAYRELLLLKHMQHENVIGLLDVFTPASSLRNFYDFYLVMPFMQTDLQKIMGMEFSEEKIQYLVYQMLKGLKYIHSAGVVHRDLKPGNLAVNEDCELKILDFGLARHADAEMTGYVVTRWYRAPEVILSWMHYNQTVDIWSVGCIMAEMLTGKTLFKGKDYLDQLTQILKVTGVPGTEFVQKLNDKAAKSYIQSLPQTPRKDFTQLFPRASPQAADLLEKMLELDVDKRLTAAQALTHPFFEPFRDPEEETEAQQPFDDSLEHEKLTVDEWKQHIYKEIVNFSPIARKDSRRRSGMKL

[9] = Homo sapiens, HeLa, read-out: EC50

## CC(O)C#Cc1cc2c(cc1Cl)NC(=O)Nc1cnc(C#N)c(n1)OCCCCCO2 (stereo not drawn)
[1]
  IC50: 26 nM

## N#Cc1ncc2nc1OCCCCCOc1cc(CC(O)CO)c(Cl)cc1NC(=O)N2 (stereo not drawn)
[1]
  IC50: 5 nM

## CCN(CC)CC#Cc1cc2c(cc1Cl)NC(=O)Nc1cnc(C#N)c(n1)OCCCCCO2
[1]
  IC50: 2 nM

## CN(C)CCOc1cc2c(cc1Cl)NC(=O)Nc1cnc(C#N)c(n1)OCCCCCO2
[1]
  IC50: 1 nM

## CC(C)CCOc1cc2c(cc1Cl)NC(=O)Nc1cnc(C#N)c(n1)OCCCCCO2
[1]
  IC50: 1060 nM

## N#Cc1ncc2nc1OCCCCCOc1cc(C#CCO)c(Cl)cc1NC(=O)N2
[1]
  IC50: 10 nM

## N#Cc1ncc2nc1OCCCCCOc1cc(OCCn3ccnc3)c(Cl)cc1NC(=O)N2
[1]
  IC50: 3 nM

## N#Cc1ncc2nc1OCCCCCOc1ccc(Cl)cc1NC(=O)N2
HeLa [2]; Homo sapiens, HeLa
  EC50: 3040 nM
NCI-H1299 [3]; Homo sapiens, NCI-H1299
  EC50: 2700 nM
HeLa [4]
  EC50: 57.6 µM
[1]
  IC50: 7 nM
NCI-H1299 [5]; Homo sapiens, NCI-H1299
  EC50: > 10 µM

## CC(C)Nc1cc2c(cc1Cl)NC(=O)Nc1cnc(C#N)c(n1)OCCCCCO2
[1]
  IC50: 11 nM

## N#Cc1ncc2nc1OCCCCCOc1cc(NCc3ccncc3)c(Cl)cc1NC(=O)N2
HeLa [2]; hela
  EC50: 1400 nM
NCI-H1299 [3]; nci-h1299
  EC50: 1200 nM
HeLa [4]; hela, read-out: EC50
  EC50: > 59 µM
[1]
  IC50: 13 nM
NCI-H1299 [5]; nci-h1299
  EC50: > 10 µM

## CN(C)CC(=O)Nc1cc2c(cc1Cl)NC(=O)Nc1cnc(C#N)c(n1)OCCCCCO2
[1]
  IC50: 1 nM

## CCNc1cc2c(cc1Cl)NC(=O)Nc1cnc(C#N)c(n1)OCCCCCO2
[1]
  IC50: 4 nM

## N#Cc1ncc2nc1OCCCCCOc1cc(OCc3cccnc3)c(Cl)cc1NC(=O)N2
[1]
  IC50: 9 nM

## N#Cc1ncc2nc1OCCCCCOc1cc(OCc3ccccn3)c(Cl)cc1NC(=O)N2
[1]
  IC50: 63 nM

## N#Cc1ncc2nc1OCCCCCOc1cc(NCCO)c(Cl)cc1NC(=O)N2
[1]
  IC50: 2 nM

## N#Cc1ncc2nc1OCCCCCOc1cc(NCc3ccccc3)c(Cl)cc1NC(=O)N2
[1]
  IC50: 266 nM

## CC(=O)Nc1cc2c(cc1Cl)NC(=O)Nc1cnc(C#N)c(n1)OCCCCCO2
[1]
  IC50: 7 nM

## CCOc1cc2c(cc1Cl)NC(=O)Nc1cnc(C#N)c(n1)OCCCCCO2
[1]
  IC50: 6 nM

## N#Cc1ncc2nc1OCCCCCOc1cc(OCc3ccncc3)c(Cl)cc1NC(=O)N2
[1]
  IC50: 12 nM

## N#Cc1ncc2nc1OCCCCCOc1cc(NCc3cncs3)c(Cl)cc1NC(=O)N2
HeLa [2]; Homo sapiens, HeLa
  EC50: 1200 nM
NCI-H1299 [3]; Homo sapiens, NCI-H1299
  EC50: 110 nM
HeLa [4]; [9]
  EC50: > 59 µM
[1]
  IC50: 6 nM
NCI-H1299 [5]; Homo sapiens, NCI-H1299
  EC50: > 10 µM

## N#Cc1ncc2nc1OCCCCCOc1cc(CCCO)c(Cl)cc1NC(=O)N2
[6]
  Ki: > 10 µM
HeLa [2]; Homo sapiens, HeLa
  EC50: 860 nM
NCI-H1299 [3]; Homo sapiens, NCI-H1299
  EC50: 190 nM
HeLa [4]; [9]
  EC50: 28.7 µM
[7]
  Ki: > 10 µM
NCI-H1299 [5]; Homo sapiens, NCI-H1299
  EC50: > 10 µM

## CS(=O)(=O)Nc1cc2c(cc1Cl)NC(=O)Nc1cnc(C#N)c(n1)OCCCCCO2
[8]
  Ki: > 10 µM
[6]
  Ki: > 10 µM
HeLa [2]; Homo sapiens, HeLa
  EC50: 2700 nM
NCI-H1299 [3]; Homo sapiens, NCI-H1299
  EC50: 1600 nM
HeLa [4]; [9]
  EC50: > 59 µM
[7]
  Ki: > 10 µM
NCI-H1299 [5]; Homo sapiens, NCI-H1299
  EC50: > 10 µM

## N#Cc1ncc2nc1OCCCCCOc1cc(N3CCCCC3)c(Cl)cc1NC(=O)N2
[1]
  IC50: 139 nM

## O=C1Nc2cncc(n2)OCCCCCOc2ccc(Cl)cc2N1
HeLa [2]; Homo sapiens, HeLa
  EC50: 37800 nM
NCI-H1299 [3]; Homo sapiens, NCI-H1299
  EC50: 7500 nM
HeLa [4]
  EC50: >59 µM
[1]
  IC50: 10 nM
NCI-H1299 [5]; Homo sapiens, NCI-H1299
  EC50: > 10 µM

## CCCCNc1cc2c(cc1Cl)NC(=O)Nc1cnc(C#N)c(n1)OCCCCCO2
[1]
  IC50: 15 nM

## N#Cc1ncc2nc1OCCCCCOc1cc(NCc3ccsc3)c(Cl)cc1NC(=O)N2
[1]
  IC50: 162 nM

## N#Cc1ncc2nc1OCCCCCOc1cc(NC(=O)CCNC3CCCC3)c(Cl)cc1NC(=O)N2
[1]
  IC50: 2 nM

## N#Cc1ncc2nc1OCCCCCOc1cc(N(CCO)CCO)c(Cl)cc1NC(=O)N2
[1]
  IC50: 4 nM

## CNc1cc2c(cc1Cl)NC(=O)Nc1cnc(C#N)c(n1)OCCCCCO2
[1]
  IC50: 2 nM

## CC(C)Oc1cc2c(cc1Cl)NC(=O)Nc1cnc(C#N)c(n1)OCCCCCO2
[1]
  IC50: 13 nM

## CC(C)CNc1cc2c(cc1Cl)NC(=O)Nc1cnc(C#N)c(n1)OCCCCCO2
[1]
  IC50: 17 nM

## N#Cc1ncc2nc1OCCCCCOc1cc(OCCCO)c(Cl)cc1NC(=O)N2
[8]
  Ki: > 10 µM
[6]
  Ki: > 10 µM
[7]
  Ki: > 10 µM

## N#Cc1ncc2nc1OCCCCCOc1cc(OCCCN)c(Cl)cc1NC(=O)N2
[1]
  IC50: 1 nM

## N#Cc1ncc2nc1OCCCCCOc1cc(NCc3cccnc3)c(Cl)cc1NC(=O)N2
HeLa [2]; hela
  EC50: 1600 nM
NCI-H1299 [3]; nci-h1299
  EC50: 330 nM
HeLa [4]; hela, read-out: EC50
  EC50: > 59 µM
[1]
  IC50: 12 nM
NCI-H1299 [5]; nci-h1299
  EC50: > 10 µM

## N#Cc1ncc2nc1OCCCCCOc1cc(N)c(Cl)cc1NC(=O)N2
HeLa [2]; Homo sapiens, HeLa
  EC50: 430 nM
NCI-H1299 [3]; Homo sapiens, NCI-H1299
  EC50: 240 nM
HeLa [4]; [9]
  EC50: > 59 µM
[1]
  IC50: 3 nM
NCI-H1299 [5]; Homo sapiens, NCI-H1299
  EC50: 7.6 µM

## COCCOc1cc2c(cc1Cl)NC(=O)Nc1cnc(C#N)c(n1)OCCCCCO2
[1]
  IC50: 5 nM

## N#Cc1ncc2nc1OCCCCCOc1cc(NCc3cnco3)c(Cl)cc1NC(=O)N2
[1]
  IC50: 7 nM

## N#Cc1ncc2nc1OCCCCCCOc1ccc(Cl)cc1NC(=O)N2
[1]
  IC50: 28 nM

## CC(C)CCCOc1cc2c(cc1Cl)NC(=O)Nc1cnc(C#N)c(n1)OCCCCCO2
[1]
  IC50: > 10000 nM

## N#Cc1ncc2nc1OCCCCOc1ccc(Cl)cc1NC(=O)N2
HeLa [2]; Homo sapiens, HeLa
  EC50: 3080 nM
HeLa [4]
  EC50: 57.6 µM
[1]
  IC50: 6 nM
NCI-H1299 [5]; Homo sapiens, NCI-H1299
  EC50: > 10 µM

## Cn1cncc1CNc1cc2c(cc1Cl)NC(=O)Nc1cnc(C#N)c(n1)OCCCCCO2
[1]
  IC50: 2 nM

## N#Cc1ncc2nc1OCCCCCOc1cc(O)c(Cl)cc1NC(=O)N2
HeLa [2]; Homo sapiens, HeLa
  EC50: 1900 nM
HeLa [4]; [9]
  EC50: > 59 µM
[1]
  IC50: 6 nM

## COCCOCCOc1cc2c(cc1Cl)NC(=O)Nc1cnc(C#N)c(n1)OCCCCCO2
[1]
  IC50: 9 nM

## CC(C)(O)C#Cc1cc2c(cc1Cl)NC(=O)Nc1cnc(C#N)c(n1)OCCCCCO2
[1]
  IC50: 109 nM

## CN(C)c1cc2c(cc1Cl)NC(=O)Nc1cnc(C#N)c(n1)OCCCCCO2
[1]
  IC50: 7 nM

## N#Cc1ncc2nc1OCCCCCOc1cc(OCCO)c(Cl)cc1NC(=O)N2
HeLa [2]; Homo sapiens, HeLa
  EC50: 3010 nM
NCI-H1299 [3]; Homo sapiens, NCI-H1299
  EC50: 700 nM
HeLa [4]; [9]
  EC50: > 59 µM
NCI-H1299 [5]; Homo sapiens, NCI-H1299
  EC50: > 10 µM

## CCN(CC)c1cc2c(cc1Cl)NC(=O)Nc1cnc(C#N)c(n1)OCCCCCO2
[1]
  IC50: 248 nM

## N#Cc1ncc2nc1OCCCCCOc1cc(NCc3c[nH]cn3)c(Cl)cc1NC(=O)N2
[1]
  IC50: 231 nM
